Measurements reported in PubChem BioAssay AID1259411 (Chemical Carcinogenesis Research Information System (CCRIS), 2018).
The source made the active and inactive calls. How the calls were made is not given here.

Tested on: rodent carcinogenicity bioassays, tumor incidence
Experiment: CCRIS carcinogenicity studies
Description: The CCRIS database contains chemical records with carcinogenicity, mutagenicity, tumor promotion, and tumor inhibition test results. It was developed by the National Cancer Institute (NCI). Data are derived from studies cited in primary journals, current awareness tools, NCI reports, and other sources. Test results have been reviewed by experts in carcinogenesis and mutagenesis.
CCRIS provides historical information from the years 1985 - 2011. It is no longer updated.
This is an archive assay for CCRIS carcinogenicity studies.

Measured: carcinogen call

C/[N+]([O-])=N/CO[C@@H]1O[C@H](CO)[C@@H](O)[C@H](O)[C@H]1O
active: Species: GUINEA PIG, Route: ORAL, Dose: 0, 5% IN DIET OF CYCAD MEAL, 2-3 5-D PERIODS, Tumor Site: Type of Lesion: LIVER: HEPATOCELLULAR CARCINOMA, BILE DUCT active; positive | Species: GUINEA PIG, Route: ORAL, Tumor Site: Type of Lesion: LIVER, BILE DUCT active; positive | Species: HAMSTER, Route: GAVAGE, Dose: 0.1, 0.15 MG/G BW, SINGLE DOSE, Tumor Site: Type of Lesion: LIVER: HEPATOCELLULAR ADENOMA, BILE DUCT: CARCINOMA, HEMANGIOENDOTHELIAL SARCOMA, LUNG: ADENOMA, INTESTINES, KIDNEY: CAR, Tumor Site: Type of Lesion: LIVER: HEPATOCELLULAR ADENOMA, BILE DUCT: CARCINOMA, HEMANGIOENDOTHELIAL SARCOMA, LUNG: ADENOMA, INTESTINES, KIDNEY: CAR active; positive | Species: HAMSTER, Route: ORAL, Tumor Site: Type of Lesion: LIVER, LUNG, INTESTINES, KIDNEY, Tumor Site: Type of Lesion: LIVER, LUNG, INTESTINES, KIDNEY active; positive | Species: HAMSTER, Route: SUBCUTANEOUS, Tumor Site: Type of Lesion: LIVER active; positive | Species: MONKEY, Strain/Sex: AFRICAN GREEN, Route: ORAL, Dose: 0, 3% (50-75 MG/KG) IN DIET OF CRUDE CYCAD MEAL, 5 D/WK FOR UP TO 11 YR, Tumor Site: Type of Lesion: UNSPECIFIED: NEOPLASM active; positive | Species: MONKEY, Strain/Sex: CYNOMOLGUS, Route: ORAL, Dose: 0, 3% (50-75 MG/KG) IN DIET OF CRUDE CYCAD MEAL, 5 D/WK FOR UP TO 11 YR, Tumor Site: Type of Lesion: UNSPECIFIED: NEOPLASM active; positive | Species: MONKEY, Strain/Sex: RHESUS, Route: ORAL, Dose: 0, 3% (50-75 MG/KG) IN DIET OF CRUDE CYCAD MEAL, 5 D/WK FOR UP TO 11 YR, Tumor Site: Type of Lesion: UNSPECIFIED: NEOPLASM active; positive | Species: MOUSE, Route: SUBCUTANEOUS, Tumor Site: Type of Lesion: LIVER, LUNG active; positive | Species: RABBIT, Route: ORAL, Tumor Site: Type of Lesion: LIVER active; positive | Species: RAT, Route: ORAL, Tumor Site: Type of Lesion: INTESTINES, KIDNEY, LIVER, Tumor Site: Type of Lesion: INTESTINES, KIDNEY, LIVER active; positive | Species: RAT, Route: SUBCUTANEOUS, Tumor Site: Type of Lesion: KIDNEY, INTESTINES, LIVER, Tumor Site: Type of Lesion: KIDNEY, INTESTINES, LIVER active; positive | Species: RAT, Strain/Sex: SPRAGUE-DAWLEY/MALE,FEMALE, Route: GAVAGE, Dose: 3 ML/KG BW CYCAD EXTRACT, 1/WK FOR 12 WK, Tumor Site: Type of Lesion: INTESTINES active; positive | Species: RAT, Strain/Sex: SPRAGUE-DAWLEY/MALE,FEMALE, Route: RECTAL, Dose: 50 MG/KG BW INTO INTESTINE 1/WK FOR 12 WK, Tumor Site: Type of Lesion: INTESTINES active; positive | Species: RAT, Strain/Sex: SPRAGUE-DAWLEY/MALE, Route: GAVAGE, Dose: 80, 250 MG/KG, SINGLE DOSE, Tumor Site: Type of Lesion: INTESTINES (COLON OR RECTUM), INTESTINES (JEJUNUM OR ILEUM), DUODENUM, Tumor Site: Type of Lesion: INTESTINES (COLON OR RECTUM), INTESTINES (JEJUNUM OR ILEUM), DUODENUM active; positive | Species: RAT, Strain/Sex: SPRAGUE-DAWLEY/MALE, Route: GAVAGE, Dose: 80 MG/KG, 1/WK FOR 15 WK, Tumor Site: Type of Lesion: INTESTINES (COLON OR RECTUM), INTESTINES (JEJUNUM OR ILEUM) active; positive
